According to patent US7696238B2, “Substituted benzo[d]isoxazol-3-yl amine compounds as analgesics” (Gruenenthal GmbH, priority 2005, dated 2010):

Tests used:
[1] = molecular target: T1, hKCNQ2/3 (stably transfected hKCNQ2/3 CHO-K1 cell line) (Homo sapiens, UniProt O43525+O43526); test: Voltage clamp (patch-clamp) measurements, current increase relative to retigabin; format: cell-based; settings: test substance 10 μM at −40 mV; current increase standardized to retigabin (10 μM) effect
T1 construct: expressed in transfected cells; host or cells: CHO-K1
Method: II. Voltage Clamp Measurements
In order to confirm electrophysiologically a KCNQ2/3 agonistic action of the substances, patch-clamp measurements [see Hamill O P, Marty A, Neher E, Sakmann B, Sigworth F J: “Improved patch-clamp techniques for high-resolution current recording from cells and cell-free membrane patches”, Pflugers Arch. 1981 August; 391(2):85-100] were carried out in the voltage clamp mode on a stably transfected hKCNQ2/3 CHO-K1 cell line. After formation of the gigaseal the cells were first of all clamped at a holding potential of −60 mV. Depolarising voltage jumps were then applied up to a potential of +20 mV (increment: 20 mV, duration: 1 second), in order to confirm the functional expression of KCNQ2/3 typical currents. The substances were tested at a potential of −40 mV. The current increase induced by retigabin (10 μM) was first of all recorded on each cell at −40 mV as positive control. After completely washing out the retigabin effect (duration: 80 sec) the test substance (10 μM) was applied. The current increase induced by the test substance was standardized to the retigabin effect and stated as relative efficacy (see below).

[2] = molecular target: T2, KCNQ2/3 ion channel (KCNQ2/3-expressing CHO-K1 cells) (Homo sapiens, UniProt O43525+O43526); test: Fluorescence assay (FLIPR instrument, membrane potential dye) for substances acting agonistically on the KCNQ2/3 ion channel; format: cell-based; settings: difference between maximum and minimum values, agonistic action detected from a value of −40 (and below)
T2 construct: expressed in transfected cells; host or cells: CHO-K1
Method: Pharmacological Test Methods I. Fluorescence Assay (FLIPR™ Instrument) for the Identification of Substances Acting Agonistically on the KCNQ2/3 Ion Channel
On the day before the experiment, KCNQ2/3-expressing CHO-K1 cells and CHO-K1 empty strain cells were seeded out onto coated poly-D-lysine black/clear plates (Falcon/BD Company; Order No.: 356640) in a concentration of 20000 cells/100 μl MEM alpha, 50 ml FCS, 5.5 ml PIS/G/solution (100×) and then incubated for 20-24 hours in an incubator (37° C., 5% CO2). On the day of the experiment the HBSS/hepes working solution and the FMP/HBSS/hepes mixture (Membrane Potential Assay Kit Red (FMP), bulk format Cat. No. R8123) were initially prepared according to the following protocol:
• 1000 ml 1× HBSS buffer (Hank's Balanced Salt Solution (1×) (Gibco; No. 14025)+10 ml hepes (1M stock solution, pH 7.4; hepes Na salt (Sigma Company; No. H7006-500 g; storage at 4° C. in a refrigerator) 2. 1× FMP/HBSS/hepes working solution: • 6 ml HBSS/hepes buffer are added to 5 ml of the FMP solution stored at −20° C. (preparation see below; thawing out at room temperature). The test substances (2 mM batch solution in 100% DMSO) contained in drug plates (Costar 96-well plates, catalogue No. 3795) were then diluted by adding HBSS/hepes buffer to a concentration of 30 μM (3× concentrated). The assay plates on which the cells grow were washed once with 200 μl HBSS/hepes (Cellwash Washer, Labsystems Company, catalogue No. 5161550) and the remaining volume was removed by tapping out the inverted plate twice. 100 μl of the FMP/HBSS/hepes working solution were then added in each case to the cell plates and incubated for 1 hour in the CO2 incubator at 37° C. and 5% CO2. The measurements are then carried out with a FLIPR III instrument from the Molecular Devices company (96-format, using the 540-590 nm band-pass filter in the #2 localization). In the experimental setup of the FLIPR software, filter #2 should be selected. The cell plates and the substance plates were fed alternately into the input stack. A signal test was carried out in each case with the cell plates before adding the substance. The test substances were then added via the pipetting unit of the FLIPR (added volume 50 μl, 3× concentrated, end concentration 10 μM) to the cavities of the cell plates in a total volume of 150 μl/well. The threshold data of the FLIPR program were as follows:
The pipette tips were washed after each pipetting procedure 3 times with 1% DMSO in water. The times of the measurement intervals after addition of the test substances are as follows:
Total measurement time: 6 min/plate
The test samples were evaluated by calculating the difference between the maximum and minimum values. EC50/IC50 values are calculated using the Graph Pad Prism software.
Preparation of the membrane potential loading buffer (membrane potential assay kit red (FMP), bulk format cat. No. R8123) according to the manufacturer's instructions:
10 ml of the 10× assay buffer (component B) were diluted with 90 ml of sterile water and then adjusted to pH 7.4 with 1.0N NaOH (1× assay buffer). One vessel with the FLIPR membrane potential assay component A was completely dissolved in 100 ml 1× assay buffer and thoroughly mixed for 10 minutes with a magnetic stirrer. 5 ml aliquots were then stored at −20° C. (storage shelf life ca. 2 weeks).
An agonistic action can be detected starting from a value of −40 (and below).

| Structure (SMILES) | Voltage clamp: relative efficacy with respect to retigabin [10 μM] [1] | FLIPR membrane potential fluorescence change (ΔF %, max minus min); negative values indicate KCNQ2/3 agonism [2] [%] |
| --- | --- | --- |
| N#Cc1cccc(NC(=S)Nc2noc3cc(F)ccc23)c1 [Example 112, 1-(3-cyanophenyl)-3-(6-fluoro-benzo[d]isoxazol-3-yl)-thiourea] | 0.3 |  |
| FC(F)(F)c1ccc(CNc2noc3ccccc23)cc1 [Example 152, benzo[d]isoxazol-3-yl-(4-trifluoromethylbenzyl)-amine] | 0.22 | −49 |
| CC(Nc1noc2ccccc12)c1ccc(SC(F)(F)F)cc1 (centres unmarked) [Example 2, Benzo[d]isoxazol-3-yl-[1-(4-trifluoromethyl-sulfanylphenyl)-ethyl]-amine] | 0.37 |  |
| COc1ccccc1NC(=S)Nc1noc2cccc(OC)c12 [Example 130, 1-(4-methoxybenzo[d]isoxazol-3-yl)-3-(2-methoxyphenyl)-thiourea] | 0.2 |  |
| Fc1ccc2onc(NCc3ccc(OC(F)(F)F)cc3)c2c1 [Example 159, (5-fluorobenzo[d]isoxazol-3-yl)-(4-trifluoromethoxy-benzyl)-amine] | 0.42 | −41 |
| Cc1ccc(COc2cccc3onc(NC(=S)NC4CCCCC4)c23)cc1 [Example 90, 1-cyclohexyl-3-[4-(4-methylbenzyloxy)-benzo[d]isoxazol-3-yl]-thiourea] |  | −41.5 |
| COc1ccc(Cl)cc1NC(=S)Nc1noc2cccc(OC)c12 [Example 132, 1-(5-chloro-2-methoxyphenyl)-3-(4-methoxybenzo[d]isoxazol-3-yl)-thiourea] |  | −45 |
| Cc1cccc(Cl)c1NC(=S)Nc1noc2cc(F)ccc12 [Example 113, 1-(2-chloro-6-methylphenyl)-3-(6-fluorobenzo[d]isoxazol-3-yl)-thiourea] |  | −55 |
| Cc1ccccc1NC(=S)Nc1noc2cccc(Cl)c12 [Example 51, 1-(4-chlorobenzo[d]isoxazol-3-yl)-3-o-tolyl-thiourea] |  | −50 |
| CCCCCCCCCNC(=S)Nc1noc2cccc(OCc3ccc(C)cc3)c12 [Example 87, 1-[4-(4-methylbenzyloxy)-benzo[d]isoxazol-3-yl]-3-nonyl-thiourea] |  | −66.5 |
| CC(Nc1noc2ccccc12)c1ccc(C(F)(F)F)cc1 (centres unmarked) [Example 1, Benzo[d]isoxazol-3-yl-[1-(4-trifluoro-methylphenyl)-ethyl]-amine] | 0.42 |  |
| COc1ccc(NC(=S)Nc2noc3cc(Br)ccc23)cc1OC [Example 108, 1-(6-bromobenzo[d]isoxazol-3-yl)-3-(3.4-dimethoxyphenyl)-thiourea] |  | −53.5 |
| COc1ccc(NC(=S)Nc2noc3cc(Cl)ccc23)cc1 [Example 106, 1-(6-chlorobenzo[d]isoxazol-3-yl)-3-(4-methoxyphenyl)-thiourea] |  | −59 |
| COc1ccc(NC(=S)Nc2noc3cccc(OC)c23)c(OC)c1 [Example 134, 1-(2,4-dimethoxyphenyl)-3-(4-methoxybenzo[d]isoxazol-3-yl)-thiourea] |  | −42 |
| C=CCNC(=S)Nc1noc2c(F)cccc12 [Example 123, 1-allyl-3-(7-fluorobenzo[d]-isoxazol-3-yl)-thiourea] |  | −55 |

The next lines start with the values.

| Voltage clamp: relative efficacy with respect to retigabin [10 μM] [1] | FLIPR membrane potential fluorescence change (ΔF %, max minus min); negative values indicate KCNQ2/3 agonism [2] [%] | Structure (SMILES) |
| --- | --- | --- |
| 0.35 |  | COc1ccc(CNc2noc3cc(F)ccc23)cc1Br [Example 168, (3-bromo-4-methoxy-benzyl)-(6-fluorobenzo[d]-isoxazol-3-yl)-amine] |
| 0.72 |  | Cc1cc(CNc2noc3cc(F)ccc23)cc(C)c1OCc1ccccc1 [Example 170, (4-benzyloxy-3,5-dimethyl-benzyl)-(6-fluorobenzo[d]isoxazol-3-yl)-amine] |
| 0.62 |  | FC(F)(F)Sc1ccc(CNc2noc3ccc(Br)cc23)cc1 [Example 176, (5-bromobenzo[d]isoxazol-3-yl)-(4-trifluoromethyl-sulfanyl-benzyl)-amine] |
| 0.45 | −58 | FC(F)(F)Sc1ccc(CNc2noc3ccccc23)cc1 [Example 160, benzo[d]isoxazol-3-yl-(4-trifluoromethylsulfanyl-benzyl)-amine] |
| 0.25 | −61 | Cc1cc(C)cc(CNc2noc3c(F)cccc23)c1 [Example 167, (3,5-dimethylbenzyl)-(7-fluorobenzo[d]isoxazol-3-yl)-amine] |
| 0.79 |  | Fc1ccc2onc(NCc3ccc(SC(F)(F)F)cc3)c2c1 [Example 162, (5-fluorobenzo[d]isoxazol-3-yl)-(4-trifluoromethyl-sulfanylbenzyl)-amine] |
| 0.84 | −55 | Fc1ccc2c(NCc3cccc(OCc4ccccc4)c3)noc2c1 [Example 173, (3-benzyloxybenzyl)-(6-fluorobenzo[d]isoxazol-3-yl)-amine] |
| 0.59 | −57.7 | CCCCc1ccc(CNc2noc3cccc(N)c23)cc1 [Example 175, N3-(4-butylbenzyl)-benzo[d]isoxazole-3,4-diamine] |
| 0.8 | −45.5 | Cc1cc(C)cc(CNc2noc3cccc(N)c23)c1 [Example 174, N3-(3,5-dimethylbenzyl)-benzo[d]isoxazole-3,4-diamine] |
| 0.61 | −40 | CCCCc1ccc(CNc2noc3cc(Cl)ccc23)cc1 [Example 161, (4-butylbenzyl)-(6-chloro-benzo[d]isoxazol-3-yl)-amine] |
| 0.68 | −53 | CCCCc1ccc(CNc2noc3cc(F)ccc23)cc1 [Example 171, (4-butylbenzyl)-(6-fluorobenzo[d]isoxazol-3-yl)-amine] |
